In ChEMBL document CHEMBL2413072, “Synthesis and in vitro anticancer studies of novel C-2 arylidene congeners of lantadenes” (2013):

Key:
Format in all cases: functional
K562 [1] = assay: Growth inhibition of human K562 cells assessed as cell growth at 10 uM by sulforhodamine B assay; details: read-out: Activity
T47D = assay: Growth inhibition of human T47D cells assessed as growth inhibition at 10 uM by sulforhodamine B assay; details: read-out: GI
BT-549 = assay: Growth inhibition of human BT549 cells assessed as growth inhibition at 10 uM by sulforhodamine B assay; details: read-out: GI
MDA-MB-231 [2] = assay: Growth inhibition of human MDA-MB-231 cells assessed as growth inhibition at 10 uM by sulforhodamine B assay; details: read-out: GI
MCF7 = assay: Growth inhibition of human MCF7 cells assessed as growth inhibition at 10 uM by sulforhodamine B assay; details: read-out: GI
PC-3 [3] = assay: Growth inhibition of human PC3 cells assessed as growth inhibition at 10 uM by sulforhodamine B assay; details: read-out: GI
CAKI-1 [4] = assay: Growth inhibition of human CAKI-1 cells assessed as growth inhibition at 10 uM by sulforhodamine B assay; details: read-out: GI
OVCAR-4 [5] = assay: Growth inhibition of human OVCAR4 cells assessed as growth inhibition at 10 uM by sulforhodamine B assay; details: read-out: GI
UACC-257 = assay: Growth inhibition of human UACC257 cells assessed as growth inhibition at 10 uM by sulforhodamine B assay; details: read-out: GI
SK-MEL-5 [6] = assay: Growth inhibition of human SK-MEL-5 cells assessed as growth inhibition at 10 uM by sulforhodamine B assay; details: read-out: GI
SK-MEL-2 = assay: Growth inhibition of human SK-MEL-2 cells assessed as growth inhibition at 10 uM by sulforhodamine B assay; details: read-out: GI
Malme-3M [7] = assay: Growth inhibition of human MALME-3M cells assessed as growth inhibition at 10 uM by sulforhodamine B assay; details: read-out: GI
U-251 = assay: Growth inhibition of human U251 cells assessed as growth inhibition at 10 uM by sulforhodamine B assay; details: read-out: GI
SNB-75 = assay: Growth inhibition of human SNB75 cells assessed as growth inhibition at 10 uM by sulforhodamine B assay; details: read-out: GI
SNB-19 = assay: Growth inhibition of human SNB19 cells assessed as growth inhibition at 10 uM by sulforhodamine B assay; details: read-out: GI
SF-539 [8] = assay: Growth inhibition of human SF539 cells assessed as growth inhibition at 10 uM by sulforhodamine B assay; details: read-out: GI
SW-620 [9] = assay: Growth inhibition of human SW620 cells assessed as growth inhibition at 10 uM by sulforhodamine B assay; details: read-out: GI
KM12 [10] = assay: Growth inhibition of human KM12 cells assessed as growth inhibition at 10 uM by sulforhodamine B assay; details: read-out: GI
HT-29 = assay: Growth inhibition of human HT-29 cells assessed as growth inhibition at 10 uM by sulforhodamine B assay; details: read-out: GI
[11] = Growth inhibition of human HCC2998 cells assessed as growth inhibition at 10 uM by sulforhodamine B assay; details: HCC 2998, read-out: GI
NCI-H522 = assay: Growth inhibition of human NCI-H522 cells assessed as growth inhibition at 10 uM by sulforhodamine B assay; details: read-out: GI
HOP-92 [12] = assay: Growth inhibition of human HOP92 cells assessed as growth inhibition at 10 uM by sulforhodamine B assay; details: read-out: GI
HOP-62 = assay: Growth inhibition of human HOP62 cells assessed as growth inhibition at 10 uM by sulforhodamine B assay; details: read-out: GI
A549 [13] = assay: Growth inhibition of human A549/ATCC cells assessed as growth inhibition at 10 uM by sulforhodamine B assay; details: read-out: GI
SR = assay: Growth inhibition of human SR cells assessed as growth inhibition at 10 uM by sulforhodamine B assay; details: read-out: GI
K562 [14] = assay: Growth inhibition of human K562 cells assessed as growth inhibition at 10 uM by sulforhodamine B assay; details: read-out: GI
[15] = Growth inhibition of human Hs 578T cells assessed as cell growth at 10 uM by sulforhodamine B assay; details: read-out: Activity
MDA-MB-231 [16] = assay: Growth inhibition of human MDA-MB-231 cells assessed as cell growth at 10 uM by sulforhodamine B assay; details: read-out: Activity
DU-145 = assay: Growth inhibition of human DU145 cells assessed as cell growth at 10 uM by sulforhodamine B assay; details: read-out: Activity
PC-3 [17] = assay: Growth inhibition of human PC3 cells assessed as cell growth at 10 uM by sulforhodamine B assay; details: read-out: Activity
UO-31 = assay: Growth inhibition of human UO31 cells assessed as cell growth at 10 uM by sulforhodamine B assay; details: read-out: Activity
TK-10 = assay: Growth inhibition of human TK10 cells assessed as cell growth at 10 uM by sulforhodamine B assay; details: read-out: Activity
SN12C = assay: Growth inhibition of human SN12C cells assessed as cell growth at 10 uM by sulforhodamine B assay; details: read-out: Activity
CAKI-1 [18] = assay: Growth inhibition of human CAKI-1 cells assessed as cell growth at 10 uM by sulforhodamine B assay; details: read-out: Activity
SK-OV-3 = assay: Growth inhibition of human SKOV3 cells assessed as cell growth at 10 uM by sulforhodamine B assay; details: read-out: Activity
[19] = Growth inhibition of human NCI-ADR-RES cells assessed as cell growth at 10 uM by sulforhodamine B assay; details: read-out: Activity
OVCAR-8 = assay: Growth inhibition of human OVCAR8 cells assessed as cell growth at 10 uM by sulforhodamine B assay; details: read-out: Activity
OVCAR-4 [20] = assay: Growth inhibition of human OVCAR4 cells assessed as cell growth at 10 uM by sulforhodamine B assay; details: read-out: Activity
IGROV-1 = assay: Growth inhibition of human IGROV1 cells assessed as cell growth at 10 uM by sulforhodamine B assay; details: read-out: Activity
SK-MEL-5 [21] = assay: Growth inhibition of human SK-MEL-5 cells assessed as cell growth at 10 uM by sulforhodamine B assay; details: read-out: Activity
Malme-3M [22] = assay: Growth inhibition of human MALME-3M cells assessed as cell growth at 10 uM by sulforhodamine B assay; details: read-out: Activity
SF-539 [23] = assay: Growth inhibition of human SF539 cells assessed as cell growth at 10 uM by sulforhodamine B assay; details: read-out: Activity
SF-268 = assay: Growth inhibition of human SF268 cells assessed as cell growth at 10 uM by sulforhodamine B assay; details: read-out: Activity
SW-620 [24] = assay: Growth inhibition of human SW620 cells assessed as cell growth at 10 uM by sulforhodamine B assay; details: read-out: Activity
KM12 [25] = assay: Growth inhibition of human KM12 cells assessed as cell growth at 10 uM by sulforhodamine B assay; details: read-out: Activity
COLO 205 = assay: Growth inhibition of human COLO205 cells assessed as cell growth at 10 uM by sulforhodamine B assay; details: read-out: Activity
HOP-92 [26] = assay: Growth inhibition of human HOP92 cells assessed as cell growth at 10 uM by sulforhodamine B assay; details: read-out: Activity
[27] = Growth inhibition of human EKVX cells assessed as cell growth at 10 uM by sulforhodamine B assay; details: read-out: Activity
A549 [28] = assay: Growth inhibition of human A549/ATCC cells assessed as cell growth at 10 uM by sulforhodamine B assay; details: read-out: Activity
RPMI-8226 = assay: Growth inhibition of human RPMI8226 cells assessed as cell growth at 10 uM by sulforhodamine B assay; details: read-out: Activity

## CC1(C)C[C@@H](O)[C@]2(C(=O)O)CC[C@]3(C)C(=CC[C@@H]4[C@@]5(C)CCC(=O)C(C)(C)[C@@H]5CC[C@]43C)[C@@H]2C1
K562 [1]
  growth at 10 µM: 76.8%
T47D
  inhibition of growth at 10 µM: 19.2%
BT-549
  inhibition of growth at 10 µM: 10.1%
MDA-MB-231 [2]
  inhibition of growth at 10 µM: < 10%
MCF7
  inhibition of growth at 10 µM: 18.6%
PC-3 [3]
  inhibition of growth at 10 µM: 40.7%
CAKI-1 [4]
  inhibition of growth at 10 µM: 15.2%
OVCAR-4 [5]
  inhibition of growth at 10 µM: 14.1%
UACC-257
  inhibition of growth at 10 µM: < 10%
SK-MEL-5 [6]
  inhibition of growth at 10 µM: 12.2%
SK-MEL-2
  inhibition of growth at 10 µM: < 10%
Malme-3M [7]
  inhibition of growth at 10 µM: 12.9%
U-251
  inhibition of growth at 10 µM: 10.8%
SNB-75
  inhibition of growth at 10 µM: < 10%
SNB-19
  inhibition of growth at 10 µM: < 10%
SF-539 [8]
  inhibition of growth at 10 µM: < 10%
SW-620 [9]
  inhibition of growth at 10 µM: < 10%
KM12 [10]
  inhibition of growth at 10 µM: 12.3%
HT-29
  inhibition of growth at 10 µM: 16.8%
[11]
  inhibition of growth at 10 µM: < 10%
NCI-H522
  inhibition of growth at 10 µM: 19.1%
HOP-92 [12]
  inhibition of growth at 10 µM: 24.6%
HOP-62
  inhibition of growth at 10 µM: 11.3%
A549 [13]
  inhibition of growth at 10 µM: 21%
SR
  inhibition of growth at 10 µM: 16.3%
K562 [14]
  inhibition of growth at 10 µM: 23.2%
[15]
  growth at 10 µM: 99.3%
MDA-MB-231 [16]
  growth at 10 µM: 91.3%
DU-145
  growth at 10 µM: 113%
PC-3 [17]
  growth at 10 µM: 59.3%
UO-31
  growth at 10 µM: 86.1%
TK-10
  growth at 10 µM: 106%
SN12C
  growth at 10 µM: 83.3%
CAKI-1 [18]
  growth at 10 µM: 84.8%
SK-OV-3
  growth at 10 µM: 102%
[19]
  growth at 10 µM: 100%
OVCAR-8
  growth at 10 µM: 80.8%
OVCAR-4 [20]
  growth at 10 µM: 85.9%
IGROV-1
  growth at 10 µM: 92.3%
SK-MEL-5 [21]
  growth at 10 µM: 87.8%
Malme-3M [22]
  growth at 10 µM: 87.1%
SF-539 [23]
  growth at 10 µM: 106%
SF-268
  growth at 10 µM: 106%
SW-620 [24]
  growth at 10 µM: 104%
KM12 [25]
  growth at 10 µM: 87.7%
COLO 205
  growth at 10 µM: 101%
HOP-92 [26]
  growth at 10 µM: 75.4%
[27]
  growth at 10 µM: 99.2%
A549 [28]
  growth at 10 µM: 79%
RPMI-8226
  growth at 10 µM: 70.2%

## C/C=C(/C)C(=O)O[C@@H]1CC(C)(C)C[C@H]2C3=CC[C@@H]4[C@@]5(C)CCC(=O)C(C)(C)[C@@H]5CC[C@@]4(C)[C@]3(C)CC[C@@]12C(=O)O [LANTADENE A]
K562 [1]
  growth at 10 µM: 44.1%
T47D
  inhibition of growth at 10 µM: 36.1%
BT-549
  inhibition of growth at 10 µM: 56%
MDA-MB-231 [2]
  inhibition of growth at 10 µM: 24.3%
MCF7
  inhibition of growth at 10 µM: 45.3%
PC-3 [3]
  inhibition of growth at 10 µM: 62.8%
CAKI-1 [4]
  inhibition of growth at 10 µM: 51.6%
OVCAR-4 [5]
  inhibition of growth at 10 µM: 23.1%
UACC-257
  inhibition of growth at 10 µM: 30%
SK-MEL-5 [6]
  inhibition of growth at 10 µM: 61.3%
SK-MEL-2
  inhibition of growth at 10 µM: 22.9%
Malme-3M [7]
  inhibition of growth at 10 µM: 19.6%
U-251
  inhibition of growth at 10 µM: 39.9%
SNB-75
  inhibition of growth at 10 µM: 13.1%
SNB-19
  inhibition of growth at 10 µM: 40.6%
SF-539 [8]
  inhibition of growth at 10 µM: 21.8%
SW-620 [9]
  inhibition of growth at 10 µM: 31.3%
KM12 [10]
  inhibition of growth at 10 µM: 60%
HT-29
  inhibition of growth at 10 µM: 32.1%
[11]
  inhibition of growth at 10 µM: 38.6%
NCI-H522
  inhibition of growth at 10 µM: 33.9%
HOP-92 [12]
  inhibition of growth at 10 µM: 56.3%
HOP-62
  inhibition of growth at 10 µM: 24.4%
A549 [13]
  inhibition of growth at 10 µM: 60.8%
SR
  inhibition of growth at 10 µM: 30.5%
K562 [14]
  inhibition of growth at 10 µM: 55.9%
[15]
  growth at 10 µM: 78.8%
MDA-MB-231 [16]
  growth at 10 µM: 75.7%
DU-145
  growth at 10 µM: 82.6%
PC-3 [17]
  growth at 10 µM: 37.2%
UO-31
  growth at 10 µM: 42.6%
TK-10
  growth at 10 µM: 83.3%
SN12C
  growth at 10 µM: 52.4%
CAKI-1 [18]
  growth at 10 µM: 48.4%
SK-OV-3
  growth at 10 µM: 90.1%
[19]
  growth at 10 µM: 73.1%
OVCAR-8
  growth at 10 µM: 63.7%
OVCAR-4 [20]
  growth at 10 µM: 76.9%
IGROV-1
  growth at 10 µM: 71.6%
SK-MEL-5 [21]
  growth at 10 µM: 38.7%
Malme-3M [22]
  growth at 10 µM: 80.4%
SF-539 [23]
  growth at 10 µM: 78.2%
SF-268
  growth at 10 µM: 74.1%
SW-620 [24]
  growth at 10 µM: 68.7%
KM12 [25]
  growth at 10 µM: 40%
COLO 205
  growth at 10 µM: 78%
HOP-92 [26]
  growth at 10 µM: 43.7%
[27]
  growth at 10 µM: 49.3%
A549 [28]
  growth at 10 µM: 39.2%
RPMI-8226
  growth at 10 µM: 16.6%
